Assay results published in patent US5955337A, “DNA encoding GLS1” (Merck & Co., Inc., priority 1996, dated 1999).
Like-named read-outs stand apart in the source and are kept apart here. *1 amine or outer side, *2 acyl side, *3 side chain or, on linkers, in order; H or OH if unused. Where a SMILES comes first, the peptide text is derived from it. Bridges are numbered along the chain shown (N, C = ends). [ ]: non-standard residue; d: D form. The star is where a group is joined. dOrn(4R-OH,5R-OH) = O=C([C@@H](C[C@@H](O)[C@@H](O)N[*:3])N[*:1])[*:2]; Tetradecanoyl(10R,12S-Me2) = CC[C@H](C)C[C@H](C)CCCCCCCCC(=O)*; hTyr(3S-OH,4S-OH) = N[C@H](C(=O)O)[C@H](O)[C@@H](O)c1ccc(O)cc1; Pro(3S-OH,4S-Me) = C[C@H]1CN[C@H](C(=O)O)[C@H]1O; Gln(3R-OH) = NC(=O)C[C@@H](O)[C@H](N)C(=O)O; Hyp = O=C(O)[C@@H]1C[C@@H](O)CN1

Tests used:
[1] = system: Pneumocystis carinii; details: rat model of P. carinii pneumonia; Schmatz et al. 1990; cited from earlier work
[2] = system: X2180 (WT); experiment: Zone of growth inhibition assay, wild-type strain; type: cell-based, Saccharomyces cerevisiae; details: μg/Disc: L,733-560 20; L-688-786 10; Aculeacin 50; Papulacandin 50; Nikkomycin Z 10; Rapamycin 12.5
Excerpt: (§1) Mutations of the GLS1 gene, including but not limited to gls1-1 (strain MS1), gls1-2 (strain MS41) and gls1-3 (strain MS43), or disruptions or deletions of GLS1, are useful for screening for glucan synthase inhibitors. Such a screen relies on the increase in echinocandin-resistance and in papulacandin sensitivity of such mutants compared to an GLS1 wild-type strain. Any technique capable of detecting this difference in sensitivity can be used. A zone of inhibition assay on agar plates is particularly useful.
(§2) The GLS1 and the fks1-4 mutants can be incorporated into an assay to screen and classify antifungal compounds with chitin and glucan synthase inhibitory effects, based on their differential resistance/sensitivity to the echinocandins, papulacandin and Nikkomycin Z. The data from this assay and the sizes of the zones of growth inhibition in millimeter is given in the following table: […]

[3] = system: MS1 (gls1-1); experiment: Zone of growth inhibition assay, gls1-1 mutant; type: cell-based, Saccharomyces cerevisiae; details: μg/Disc: L,733-560 20; L-688-786 10; Aculeacin 50; Papulacandin 50; Nikkomycin Z 10; Rapamycin 12.5
Excerpt: as §1, §2

[4] = system: MS14 (fks1-4); experiment: Zone of growth inhibition assay, fks1-4 mutant; type: cell-based, Saccharomyces cerevisiae; details: μg/Disc: L,733-560 20; L-688-786 10; Aculeacin 50; Papulacandin 50; Nikkomycin Z 10; Rapamycin 12.5
Excerpt: as §1, §2

[5] = target: T1, 1,3-β-glucan synthase (Saccharomyces cerevisiae, UniProt P06780); experiment: biochemical
T1 construct: Membrane extracts were prepared from mutant and wild-type cells grown to logarithmic phase; endogenous in cells; host or cells: S. cerevisiae X2180-1A (wild-type) and MS1 (gls1-1 mutant), washed 100,000×g membrane pellet
Procedure: Membrane extracts were prepared from mutant and wild-type cells grown to logarithmic phase (Kang and Cabib, PNAS, 83, 5808-5812, 1986). After homogenization with glass beads, unbroken cells and debris were removed by low speed centrifugation (1,000×g for 5 min). The supernatant fluids were centrifuged at 100,000×g for 60 min, and the resulting pellets were washed with 2.5 ml (per gram of wet cells) of buffer containing 0.05 M potassium phosphate (pH 7.5), 0.5 mM DTT, and 1.0 mM PMSF. The washed pellet was resuspended in the same buffer containing 5% glycerol. This protein extract served as the source for both 1,3-β-glucan synthase and the chitin synthases utilized in the enzymatic assays.
Protein concentrations were determined using BCA protein assay reagent kit (Pierce Corp.), utilizing bovine serum album (BSA; Pierce Corp.) as a standard. The 1,3-β-glucan synthase reactions were performed as previously described (Cabib, E., and M. S. Kang. 1987. Fungal 1,3-b-glucansynthase, Methods Enzymol. 138: 637-642). Briefly, an […] reaction contained 125 mM Tris HCL (pH7.5), 0.25 mM dithiothretol, 30 mM KF, 0.3 M glycerol, 0.23% BSA, 0.125 mM PMSF, 2 mM UDP-glucose, […] guanosine 5'-(g-thio) triphosphate (GTPγS), 0.1 nmol UDP-[^3 H] glucose (Amersham; 4.5 Ci/mmol;) plus […] of membrane protein extract. The reactions were performed in the presence of 0.0, 0.1, 0.5, 5, 25 and 50 mM L, 733-560 for dose titration of the drug. Following incubation at 25° C. for 150 minutes, the [^3 H]-glucose incorporated into trichloroacetic acid-insoluble material was collected onto glass fiber filters (102×258 mm) and measured using a betaplate liquid scintillation counter (Cambridge Technologies Inc.; series 2800 harvester) at 25% efficiency. The product of such reactions was verified by solubilization by laminarinase (Sigma, #L9259) but not by α-amylase (Sigma, #A2643).
To study activation of 1,3-β-glucan synthesis by GTPγS incorporation of UDP-glucose into 1,3-β-D glucans, in absence and in presence of 3.3 uM GTPγS was measured. […]

[6] = system: Strain MS1 (gls1-1 mutant); experiment: Effect of antifungal drugs on strain MS1 relative to wild-type parental strain; type: cell-based, Saccharomyces cerevisiae; details: FIG. 2, FIG. 10
Procedure: To quantitate the echinocandin sensitivity/resistance of the mutant strains, yeast cells grown to log phase were inoculated into 2 ml SC broth and incubated overnight at 28° C. A flat bottom 96-well microtiter plate was seeded with 75 μl of SC medium in columns 2 through 12. To column 1, 150 μl medium was added. Echinocandin (L-733,560) was prepared at a concentration of 30 μg/ml solution in sterile distilled water. An aliquot (75 μl) of echinocandin solution was added to column 3, and 75 μl from column 3 was transferred to column 4, followed by mixing of the contents of each well. 75 μl from column 4 was transferred into column 5, and the serial dilution was carried on to column 12 from which a 75 μl was discarded. A dilution of 6×10^5 cells/ml in URA drop out medium was prepared from the yeast strains. 75 μl cell suspension was then added to columns 2 through 12 giving 4.5×10^4 cells/well. The plates were incubated at 28° C. for 24-48 hr. Growth in the presence and absence of echinocandin was measured by absorbance at 600 nm.

[7] = system: fks1-4 mutant (strain MS14); experiment: Resistance/sensitivity of fks1-4 mutant relative to wild-type; type: cell-based, Saccharomyces cerevisiae; details: fks1-4 mutant vs wild-type
Excerpt: as §2

T1 sequence (P38631 whole entry): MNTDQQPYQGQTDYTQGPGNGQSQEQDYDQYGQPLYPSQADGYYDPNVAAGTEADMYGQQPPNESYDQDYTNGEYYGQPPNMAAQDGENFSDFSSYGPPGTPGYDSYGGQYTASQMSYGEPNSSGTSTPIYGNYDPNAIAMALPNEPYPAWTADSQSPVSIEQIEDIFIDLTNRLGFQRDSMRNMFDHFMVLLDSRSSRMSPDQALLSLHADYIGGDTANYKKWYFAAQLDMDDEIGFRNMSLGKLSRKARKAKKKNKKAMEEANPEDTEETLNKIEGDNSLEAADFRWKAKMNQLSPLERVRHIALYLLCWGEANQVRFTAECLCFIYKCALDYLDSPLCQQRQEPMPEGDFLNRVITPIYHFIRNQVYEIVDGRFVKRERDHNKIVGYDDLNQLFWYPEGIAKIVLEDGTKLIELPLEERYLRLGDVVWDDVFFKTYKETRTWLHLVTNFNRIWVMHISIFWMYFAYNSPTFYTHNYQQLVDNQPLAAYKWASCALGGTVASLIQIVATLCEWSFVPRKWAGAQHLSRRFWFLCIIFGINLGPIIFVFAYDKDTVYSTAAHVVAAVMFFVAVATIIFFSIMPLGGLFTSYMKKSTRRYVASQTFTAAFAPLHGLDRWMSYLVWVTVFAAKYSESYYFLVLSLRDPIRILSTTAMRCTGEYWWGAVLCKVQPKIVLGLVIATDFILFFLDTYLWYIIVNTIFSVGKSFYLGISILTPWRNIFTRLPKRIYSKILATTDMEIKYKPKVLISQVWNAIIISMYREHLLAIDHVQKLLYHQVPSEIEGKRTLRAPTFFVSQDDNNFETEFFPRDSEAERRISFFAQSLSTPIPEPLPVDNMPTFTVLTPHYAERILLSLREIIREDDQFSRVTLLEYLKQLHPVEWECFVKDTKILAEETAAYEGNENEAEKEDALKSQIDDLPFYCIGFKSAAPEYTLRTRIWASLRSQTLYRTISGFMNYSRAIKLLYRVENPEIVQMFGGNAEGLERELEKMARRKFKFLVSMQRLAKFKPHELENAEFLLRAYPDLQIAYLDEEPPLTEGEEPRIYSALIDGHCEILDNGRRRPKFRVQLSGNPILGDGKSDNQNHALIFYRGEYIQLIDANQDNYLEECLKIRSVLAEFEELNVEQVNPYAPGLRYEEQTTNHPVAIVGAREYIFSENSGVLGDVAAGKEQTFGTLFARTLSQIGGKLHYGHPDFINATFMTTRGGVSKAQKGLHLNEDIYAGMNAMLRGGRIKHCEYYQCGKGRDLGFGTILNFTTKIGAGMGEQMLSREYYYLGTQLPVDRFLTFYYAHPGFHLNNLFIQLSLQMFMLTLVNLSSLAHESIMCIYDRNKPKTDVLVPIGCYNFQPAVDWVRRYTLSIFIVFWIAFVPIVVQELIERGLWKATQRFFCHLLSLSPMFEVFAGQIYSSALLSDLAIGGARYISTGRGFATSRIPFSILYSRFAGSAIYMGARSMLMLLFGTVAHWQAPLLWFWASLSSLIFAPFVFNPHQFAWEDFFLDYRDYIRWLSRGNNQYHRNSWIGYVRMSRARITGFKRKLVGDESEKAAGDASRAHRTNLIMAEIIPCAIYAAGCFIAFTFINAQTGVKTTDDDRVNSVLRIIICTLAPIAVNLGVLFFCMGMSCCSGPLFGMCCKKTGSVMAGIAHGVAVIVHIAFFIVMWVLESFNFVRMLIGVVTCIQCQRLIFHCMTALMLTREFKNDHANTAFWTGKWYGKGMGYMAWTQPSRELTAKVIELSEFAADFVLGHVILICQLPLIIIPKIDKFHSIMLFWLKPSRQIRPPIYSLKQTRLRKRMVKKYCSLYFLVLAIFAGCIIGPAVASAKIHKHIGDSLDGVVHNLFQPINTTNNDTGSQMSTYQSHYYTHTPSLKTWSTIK
T1 sequence (P06780 2-206): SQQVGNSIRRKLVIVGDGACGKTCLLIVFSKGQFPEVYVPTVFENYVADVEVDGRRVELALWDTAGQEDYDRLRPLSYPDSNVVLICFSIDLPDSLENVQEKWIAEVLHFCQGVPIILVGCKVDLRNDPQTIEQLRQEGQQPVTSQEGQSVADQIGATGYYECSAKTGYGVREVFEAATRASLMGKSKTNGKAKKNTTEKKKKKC

For `CC[C@H](C)C[C@H](C)CCCCCCCCC(=O)N[C@@H]1C[C@@H](O)[C@@H](O)NC(=O)[C@@H]2[C@@H](O)[C@@H](C)CN2C(=O)[C@H]([C@H](O)CC(N)=O)NC(=O)[C@H]([C@H](O)[C@@H](O)c2ccc(O)cc2)NC(=O)[C@@H]2C[C@@H](O)CN2C(=O)[C@H]([C@@H](C)O)NC1=O` [L-671,329] ({Tetradecanoyl(10R,12S-Me2)}-[dOrn(4R-OH,5R-OH)]T[Hyp][hTyr(3S-OH,4S-OH)][Gln(3R-OH)][Pro(3S-OH,4S-Me)]; lactam 1-C), the “reduction of the number of cysts in the lungs of infected rats” value [1] is given as “effective in reducing the number of cysts”.
In the case of Aculeacin, the “size of the zone of growth inhibition, X2180 (WT)” value [2] is reported as 15 millimeter, the “size of the zone of growth inhibition, MS1 (gls1-1)” value [3] is reported as 9 millimeter and the “size of the zone of growth inhibition, MS14 (fks1-4)” value [4] is reported as 0.0 millimeter.
For `Nc1nc2c(ncn2[C@@H]2O[C@H](COP(=O)(O)OP(=O)(O)OP(O)(O)=S)[C@@H](O)[C@H]2O)c(=O)[nH]1` [GTPγS, guanosine 5'-(g-thio) triphosphate], the “response of MS1 mutant enzymatic activity to increasing concentrations of GTPγS” value ([5]; MS1 mutant membranes, FIG. 5) was “responded rather poorly”, the fold induction at 3.3 µM ([5]; read-out: stimulation of glucan synthesis by GTPγS, MS1 mutant enzyme) was 6 and the fold induction at 3.3 µM ([5]; read-out: stimulation of glucan synthesis by GTPγS, first value) was ~19.
In the case of `CO[C@H]1C[C@@H]2CC[C@@H](C)[C@@](O)(O2)C(=O)C(=O)N2CCCC[C@H]2C(=O)O[C@H]([C@H](C)C[C@@H]2CC[C@@H](O)[C@H](OC)C2)CC(=O)[C@H](C)/C=C(\C)[C@@H](O)[C@@H](OC)C(=O)[C@H](C)C[C@H](C)/C=C/C=C/C=C/1C` [Rapamycm, rapamycin], the “size of the zone of growth inhibition, X2180 (WT)” value [2] is reported as 0.0 millimeter, the “sensitivity/resistance of MS1 cells compared with wild-type parental strain” value [6] is reported as “more sensitive” and the “size of the zone of growth inhibition, MS1 (gls1-1)” value [3] is reported as 13 millimeter. For the same compound, the “size of the zone of growth inhibition, MS14 (fks1-4)” value [4] was 0.0 millimeter.
For `C[C@@H]([C@H](N)C(=O)N[C@H](C(=O)O)[C@H]1O[C@@H](n2ccc(=O)[nH]c2=O)[C@H](O)[C@@H]1O)[C@H](O)c1ccc(O)cn1` [Nikkomycin Z], the “size of the zone of growth inhibition, X2180 (WT)” value [2] was 0.0 millimeter, the “size of the zone of growth inhibition, MS1 (gls1-1)” value [3] was 0.0 millimeter and the “fold more sensitive than wild-type, fks1-4 mutant (MS14)” value [7] was 1000 fold. For the same compound, the “size of the zone of growth inhibition, MS14 (fks1-4)” value [4] was 30.0 millimeter.
In the case of `CCC(O)/C=C/C=C/C=C/C(=O)OC[C@H]1O[C@@H](O[C@H]2[C@H](OC(=O)/C=C/C=C/CC(O)/C(C)=C/C=C/CCC(C)CC)[C@@H](O)[C@@]3(OCc4cc(O)cc(O)c43)O[C@@H]2CO)[C@H](O)[C@@H](O)[C@H]1O` (stereo partly shown) [Papulacandin], the “size of the zone of growth inhibition, X2180 (WT)” value [2] is reported as 10 millimeter, the “sensitivity/resistance of MS1 cells compared with wild-type parental strain” value [6] is reported as “more sensitive” and the “size of the zone of growth inhibition, MS1 (gls1-1)” value [3] is reported as 20 millimeter. The “size of the zone of growth inhibition, MS14 (fks1-4)” value [4] was 10 millimeter.
